Among the data in patent US11447487B2, “Spiroheptanyl hydantoins as rock inhibitors” (BRISTOL-MYERS SQUIBB COMPANY, priority 2017, dated 2022) are IC50 values, retold here.

Chain of ROCK2 (O75116 whole entry, species assumed): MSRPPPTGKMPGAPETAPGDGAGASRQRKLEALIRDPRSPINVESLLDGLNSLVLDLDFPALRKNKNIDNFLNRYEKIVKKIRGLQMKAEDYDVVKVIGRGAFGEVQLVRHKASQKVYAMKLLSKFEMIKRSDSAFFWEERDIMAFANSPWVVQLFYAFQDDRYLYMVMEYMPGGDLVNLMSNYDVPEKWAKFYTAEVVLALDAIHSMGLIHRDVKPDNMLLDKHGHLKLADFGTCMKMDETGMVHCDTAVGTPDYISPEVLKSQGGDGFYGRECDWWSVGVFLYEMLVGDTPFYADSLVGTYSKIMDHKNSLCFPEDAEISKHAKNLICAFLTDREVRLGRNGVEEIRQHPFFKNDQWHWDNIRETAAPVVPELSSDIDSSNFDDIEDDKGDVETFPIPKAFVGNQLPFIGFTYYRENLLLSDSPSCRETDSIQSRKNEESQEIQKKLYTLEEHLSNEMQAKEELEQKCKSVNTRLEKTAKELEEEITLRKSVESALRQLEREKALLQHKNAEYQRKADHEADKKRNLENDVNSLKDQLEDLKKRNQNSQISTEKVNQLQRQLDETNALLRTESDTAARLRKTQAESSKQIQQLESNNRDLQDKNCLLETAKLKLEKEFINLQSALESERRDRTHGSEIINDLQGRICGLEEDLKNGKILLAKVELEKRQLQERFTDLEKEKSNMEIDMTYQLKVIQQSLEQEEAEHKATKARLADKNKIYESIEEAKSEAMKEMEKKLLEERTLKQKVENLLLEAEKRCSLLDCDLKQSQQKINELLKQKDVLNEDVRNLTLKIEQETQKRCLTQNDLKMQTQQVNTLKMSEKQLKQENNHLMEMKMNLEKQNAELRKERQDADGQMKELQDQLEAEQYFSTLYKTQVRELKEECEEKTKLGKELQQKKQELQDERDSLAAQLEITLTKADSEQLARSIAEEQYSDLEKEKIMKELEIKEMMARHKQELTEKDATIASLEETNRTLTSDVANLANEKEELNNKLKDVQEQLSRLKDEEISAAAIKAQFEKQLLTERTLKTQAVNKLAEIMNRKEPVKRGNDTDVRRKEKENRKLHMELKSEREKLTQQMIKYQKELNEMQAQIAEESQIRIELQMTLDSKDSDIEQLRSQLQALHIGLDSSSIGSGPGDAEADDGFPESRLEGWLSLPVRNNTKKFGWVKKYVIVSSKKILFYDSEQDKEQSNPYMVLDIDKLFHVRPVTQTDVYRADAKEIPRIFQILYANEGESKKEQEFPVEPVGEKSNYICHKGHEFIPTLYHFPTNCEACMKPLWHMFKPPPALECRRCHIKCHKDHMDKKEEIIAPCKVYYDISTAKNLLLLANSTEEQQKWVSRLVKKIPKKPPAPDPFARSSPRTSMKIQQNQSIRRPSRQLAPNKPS

The assay concerns the target ROCK2 (Homo sapiens (Human), UniProt O75116). Description: ROCK assay (Caliper LABCHIP peptide phosphorylation). The format is biochemical. Particulars: 5 μM ATP, 1.5 μM peptide substrate. The protocol:
The effectiveness of compounds of the present invention as ROCK inhibitors can be determined in a 30 μL assay containing 20 mM HEPES, pH 7.5, 20 mM MgCl2, 0.015% Brij-35, 4 mM DTT, 5 μM ATP and 1.5 μM peptide substrate (FITC-AHA-AKRRRLSSLRA-OH) (SEQ ID No. 1). Compounds were dissolved in DMSO so that the final concentration of DMSO was <2%, and the reaction was initiated with Rho kinase variants. After incubation, the reaction was terminated by the addition of EDTA and the phosphorylated and non-phosphorylated peptides separated using a LABCHIP® 3000 Reader (Caliper Life Sciences). […] Compounds were tested in dose-response format, and the inhibition of kinase activity was calculated at each concentration of compound. The inhibition data were fit using a curve-fitting program to determine the IC50; i.e., the concentration of compound required to inhibit 50% of kinase activity. Representative Examples were tested in the ROCK assay described above and found having ROCK inhibitory activity. A range of ROCK inhibitory activity (IC50 values) of ≤50 μM (50000 nM) was observed. Table A below lists the ROCK IC50 values measured for the following examples.
With `CCC(CC)C1NC(=O)N([C@H]2C[C@@]3(C[C@H](Oc4ncccc4C(N)=O)C3)C2)C1=O` (some centres unmarked) [Example 51, 2-{[(αR)-6-[2,5-dioxo-4-(pentan-3-yl)imidazolidin-1-yl]spiro[3.3]heptan-2-yl]oxy}pyridine-3-carboxamide], the IC50 (commonly the concentration that inhibits the measured activity by half) was 155 nM.

As for `CC(C)CCC1NC(=O)N([C@H]2C[C@@]3(C[C@H](Oc4ncccc4C(N)=O)C3)C2)C1=O` (some centres unmarked) [Example 54, 2-{[(αR)-6-[4-(3-methylbutyl)-2,5-dioxoimidazolidin-1-yl]spiro[3.3]-heptan-2-yl]oxy}-pyridine-3-carbox-amide], the IC50 stood at 186 nM.

In the case of `CC(C)(O)CC1NC(=O)N([C@H]2C[C@@]3(C[C@H](Oc4ncccc4C(N)=O)C3)C2)C1=O` (some centres unmarked) [Example 58, 2-{[(αR)-6-[4-(2-hydroxy-2-methyl-propyl)-2,5-dioxo-imidazolidin-1-yl]-spiro[3.3]heptan-2-yl]oxy}pyridine-3-carboxamide], 289 nM corresponded to half-maximal inhibition (IC50).

For the compound `CC(C)(O)CCC1NC(=O)N([C@H]2C[C@@]3(C[C@H](Oc4ncccc4C(N)=O)C3)C2)C1=O` (some centres unmarked) [Example 62, 2-{[(αR)-6-[4-(3-hydroxy-3-methyl-butyl)-2,5-dioxo-imidazolidin-1-yl]-spiro[3.3]heptan-2-yl]oxy}pyridine-3-carboxamide], the IC50 turned out to be 421 nM. The IC50 values of the last two compounds are within 1.5-fold of each other.

In the case of `NC(=O)c1cccnc1O[C@H]1C[C@]2(C1)C[C@H](N1C(=O)C(=O)N(CC3CCC3)C1=O)C2` (some centres unmarked) [Example 63, 2-{[(αR)-6-[3-(cyclobutyl-methyl)-2,4,5-tri-oxoimidazolidin-1-yl]spiro[3.3]-heptan-2-yl]oxy}-pyridine-3-carbox-amide], the IC50 is 617 nM.

`CC(C)CCN1C(=O)C(=O)N([C@H]2C[C@@]3(C[C@H](Oc4ncccc4C(N)=O)C3)C2)C1=O` (some centres unmarked) [Example 65, 2-{[(αR)-6-[3-(3-methylbutyl)-2,4,5-trioxo-imidazolidin-1-yl]spiro[3.3]-heptan-2-yl]oxy}-pyridine-3-carbox-amide] registered an IC50 of 968 nM.

As for `NC(=O)c1cccnc1O[C@H]1C[C@]2(C1)C[C@H](N1C(=O)NC(CCCS(N)(=O)=O)C1=O)C2` (some centres unmarked) [Example 66, 2-{[(αR)-6-[2,5-dioxo-4-(3-sulfam-oylpropyl)imidazol-idin-1-yl]spiro-[3.3]heptan-2-yl]-oxy}pyridine-3-carboxamide], the IC50 was determined as 1550 nM.

For the compound `CC(C)CN1C(=O)C(=O)N([C@H]2C[C@@]3(C[C@H](Oc4ncccc4C(N)=O)C3)C2)C1=O` (some centres unmarked) [Example 67, 2-{[(αR)-6-[3-(2-methylpropyl)-2,4,5-trioxo-imidazolidin-1-yl]-spiro[3.3]heptan-2-yl]oxy}pyridine-3-carboxamide], it took 1780 nM to reach half-maximal inhibition (IC50).

`NC(=O)c1cccnc1O[C@H]1C[C@]2(C1)C[C@H](N1C(=O)NC(CC3CC4CCC3C4)C1=O)C2` (some centres unmarked) [Example 69, 2-{[(αR)-6-[4-({bicyclo[2.2.1]-heptan-2-yl]}-methyl)-2,5-dioxo-imidazolidin-1-yl]-spiro[3.3]heptan-2-yljoxy}pyridine-3-carboxamide] registered an IC50 of 16 nM.

For `NC(=O)c1cccnc1O[C@H]1C[C@]2(C1)C[C@H](N1C(=O)NC(CC3CC4CCC3CC4)C1=O)C2` (some centres unmarked) [Example 70, 2-{[(αR)-6-[4-({bicyclo[2.2.2]-octan-2-yl}-methyl)-2,5-dioxo-imidazolidin-1-yl]spiro[3.3]-heptan-2-yl]oxy}-pyridine-3-carbox-amide], the IC50 was found to be 20 nM.

As to `CC(CCC1NC(=O)N([C@H]2C[C@@]3(C[C@H](Oc4ncccc4C(N)=O)C3)C2)C1=O)C(F)(F)F` (some centres unmarked) [Example 71, 2-{[(αR)-6-[2,5-dioxo-4-(4,4,4-trifluoro-3-methyl-butyl)imidazolidin-1-yl]spiro[3.3]-heptan-2-yl]oxy}-pyridine-3-carbox-amide], the IC50 is 36 nM. This IC50 is about 1.8-fold higher than that of the compound before.

`Cc1c(CC2NC(=O)N([C@H]3C[C@@]4(C[C@H](Oc5ncccc5C(N)=O)C4)C3)C2=O)cnn1C` (some centres unmarked) [Example 72, 2-{[(αR)-6-{4-[(1,5-dimethyl-1H-pyrazol-4-yl)-methyl]-2,5-dioxo-imidazolidin-1-yl}-spiro[3.3]heptan-2-yl]oxy}pyridine-3-carboxamide] gave an IC50 of 885 nM.

The compound `NC(=O)c1cccnc1O[C@H]1C[C@]2(C1)C[C@H](N1C(=O)NC(Cc3ccncc3)C1=O)C2` (some centres unmarked) [Example 73, 2-{[(αR)-6-{2,5-dioxo-4-[(pyridin-4-yl)methyl]-imidazolidin-1-yl}-spiro[3.3]heptan-2-yl]oxy}pyridine-3-carboxamide] gave a concentration for half-maximal inhibition (IC50) of 2280 nM. This IC50 lies about 2.6-fold higher than the previous one.

The compound `[H][C@]1(Oc2ncccc2C(N)=O)C[C@@]2(C[C@H](N3C(=O)C[C@H](CCc4ccccc4)NC3=O)C2)C1` (some centres unmarked) [Example 74] showed an IC50 of 75 nM.

In turn, `CC[C@H](C)[C@H]1CC(=O)N([C@H]2C[C@@]3(C[C@H](Oc4ncccc4C(N)=O)C3)C2)C(=O)N1` (stereo partly drawn) [Example 75, 2-{[(αR)-6-[(4R)-4-[(2S)-butan-2-yl]-2,6-dioxo-1,3-diazinan-1-yl]-spiro[3.3]heptan-2-yl]oxy}pyridine-3-carboxamide] gave an IC50 of 138 nM.

The compound `NC(=O)c1cccnc1O[C@H]1C[C@]2(C1)C[C@H](N1C(=O)C[C@H](c3cccc(Br)c3)NC1=O)C2` (stereo partly drawn) [Example 77, 2-{[(αR)-6-[(4R)-4-(3-bromophenyl)-2,6-dioxo-1,3-diazinan-1-yl]-spiro[3.3]heptan-2-yl]oxy}pyridine-3-carboxamide] gave an IC50 of 614 nM.

In turn, `C=CC[C@@H]1CC(=O)N([C@H]2C[C@@]3(C[C@H](Oc4ncccc4C(N)=O)C3)C2)C(=O)N1` (stereo partly drawn) [Example 78, 2-{[(αR)-6-[(4R)-2,6-dioxo-4-(prop-2-en-1-yl)-1,3-diazinan-1-yl]-spiro[3.3]heptan-2-yl]oxy}pyridine-3-carboxamide] returned an IC50 of 963 nM. Against the preceding compound, the IC50 is about 1.6-fold higher.

`[H][C@]1(Oc2ncccc2C(N)=O)C[C@]2(C[C@@H](N3C(=O)NCC(CC(C)C)C3=O)C2)C1` (some centres unmarked) [Example 79] came in with an IC50 of 131 nM. This IC50 is about 7.4-fold lower than that of the compound before.

Regarding `[H][C@]1(Oc2ncccc2C(N)=O)C[C@]2(C[C@@H](N3C(=O)CN(c4cccc(Cl)c4)C3=O)C2)C1` (stereo partly drawn) [Example 80, 2-(((aR)-6-(3-(3-chlorophenyl)-2,5-dioxoimidazolidin-1-yl)spiro[3.3]heptan-2-yl)oxy)nicotinamide], the IC50 amounted to 2 nM.

As to `NC(=O)c1cccnc1OC1CC2(C1)CC(N1C(=O)CN(c3ccccc3OC(F)F)C1=O)C2` (centres unmarked) [Example 81, 2-(((αR)-6-(3-(2-(difluoromethoxy)phenyl)-2,5-dioxoimidazolidin-1-yl)spiro[3.3]heptan-2-yl)oxy)nicotinamide], half-maximal inhibition (IC50) required 3 nM.

Take `NC(=O)c1cccnc1O[C@H]1C[C@]2(C1)C[C@H](N1C(=O)CN(c3cccc(C(F)(F)F)c3)C1=O)C2` (some centres unmarked) [Example 82, 2-(((αR)-6-(2,5-dioxo-3-(3-(trifluoromethyl)phenyl)imidazolidin-1-yl)spiro[3.3]heptan-2-yl)oxy)nicotinamide]: the midpoint of inhibition, the IC50, lay at 5 nM.

On to `NC(=O)c1cccnc1O[C@H]1C[C@]2(C1)C[C@H](N1C(=O)CN(c3ccc(Oc4ccccc4)cc3)C1=O)C2` (some centres unmarked) [Example 83, 2-(((αR)-6-(2,5-dioxo-3-(4-phenoxyphenyl)imidazolidin-1-yl)spiro[3.3]heptan-2-yl)oxy)nicotinamide], for which the midpoint of inhibition, the IC50, lay at 9 nM.

In turn, `NC(=O)c1cccnc1O[C@H]1C[C@]2(C1)C[C@H](N1C(=O)CN(c3ccc(Cc4ccccc4)cc3)C1=O)C2` (some centres unmarked) [Example 84, 2-(((αR)-6-(3-(4-benzylphenyl)-2,5-dioxoimidazolidin-1-yl)spiro[3.3]heptan-2-yl)oxy)nicotinamide] gave an IC50 of 17 nM. Against the preceding compound, the IC50 is about 1.9-fold higher.
